{"source": "ChEMBL document CHEMBL3352715", "about": "“Synthesis of new verapamil analogues and their evaluation in combination with rifampicin against Mycobacterium tuberculosis and molecular docking studies in the binding site of efflux protein Rv1258c” (2014)", "key": {"[1]": {"test_system": "Mycobacterium tuberculosis", "experiment": "Inhibition of multidrug resistance efflux pump Rv1258c in Mycobacterium tuberculosis H37Rv assessed as rifampicin MIC99 by MABA method"}, "[2]": {"test_system": "Mycobacterium tuberculosis", "experiment": "Inhibition of multidrug resistance efflux pump Rv1258c in Mycobacterium tuberculosis H37Rv assessed as reduction in rifampicin MIC99 by MABA method"}, "[3]": {"test_system": "Mycobacterium tuberculosis", "experiment": "Inhibition of multidrug resistance efflux pump Rv1258c in Mycobacterium tuberculosis H37Rv assessed as potentiation of rifampicin-induced antimycobacterial activity by MABA method based Chequerboard synergy assay"}}, "data": [{"molecule": "COc1ccc(CCN(CCCC(C#N)(c2ccc(OC)c(OC)c2)C(C)C)C2CC2)cc1OC", "note": "(centres undefined)", "values": [{"measurement": "MIC99", "setting": "[1]", "result": 4.2, "unit": "nM"}, {"measurement": "fold change (FC)", "setting": "[2]", "result": 2}, {"measurement": "fractional inhibitory concentration index (FICI)", "setting": "[3]", "result": 0.75}]}, {"molecule": "CCN(CCCC(C#N)(c1ccc(OC)c(OC)c1)C(C)C)CCc1ccc(OC)c(OC)c1", "note": "(centres undefined)", "values": [{"measurement": "MIC99", "setting": "[1]", "result": 8.3, "unit": "nM"}, {"measurement": "fractional inhibitory concentration index (FICI)", "setting": "[3]", "result": 1}]}, {"molecule": "CCCN(CCCC(C#N)(c1ccc(OC)c(OC)c1)C(C)C)CCc1ccc(OC)c(OC)c1", "note": "(centres undefined)", "values": [{"measurement": "MIC99", "setting": "[1]", "result": 8.3, "unit": "nM"}, {"measurement": "fractional inhibitory concentration index (FICI)", "setting": "[3]", "result": 0.78}]}, {"molecule": "COc1ccc(CCN(CCCC(C#N)(c2ccc(OC)c(OC)c2)C(C)C)Cc2ccccc2)cc1OC", "note": "(centres undefined)", "values": [{"measurement": "MIC99", "setting": "[1]", "result": 2.1, "unit": "nM"}, {"measurement": "fold change (FC)", "setting": "[2]", "result": 4}, {"measurement": "fractional inhibitory concentration index (FICI)", "setting": "[3]", "result": 0.3}]}, {"molecule": "COc1ccc(N(C)CCCC(C#N)(c2ccc(OC)c(OC)c2)C(C)C)cc1OC", "note": "(centres undefined)", "values": [{"measurement": "MIC99", "setting": "[1]", "result": 8.3, "unit": "nM"}]}, {"molecule": "COc1ccc(CN(C)CCCC(C#N)(c2ccc(OC)c(OC)c2)C(C)C)cc1OC", "note": "(centres undefined)", "values": [{"measurement": "MIC99", "setting": "[1]", "result": 8.3, "unit": "nM"}]}, {"molecule": "COc1ccc(C(C#N)(CCCN2CCCCC2)C(C)C)cc1OC", "note": "(centres undefined)", "values": [{"measurement": "MIC99", "setting": "[1]", "result": 4.2, "unit": "nM"}, {"measurement": "fold change (FC)", "setting": "[2]", "result": 2}, {"measurement": "fractional inhibitory concentration index (FICI)", "setting": "[3]", "result": 1}]}, {"molecule": "COc1ccc(C(C#N)(CCCN2CCOCC2)C(C)C)cc1OC", "note": "(centres undefined)", "values": [{"measurement": "MIC99", "setting": "[1]", "result": 8.3, "unit": "nM"}, {"measurement": "fractional inhibitory concentration index (FICI)", "setting": "[3]", "result": 1.5}]}, {"molecule": "COc1ccc(C(C#N)(CCCN2CCC(O)CC2)C(C)C)cc1OC", "note": "(centres undefined)", "values": [{"measurement": "MIC99", "setting": "[1]", "result": 8.3, "unit": "nM"}, {"measurement": "fractional inhibitory concentration index (FICI)", "setting": "[3]", "result": 1.5}]}, {"molecule": "COc1ccc(C(C#N)(CCCN2CCC(N3CCCCC3)CC2)C(C)C)cc1OC", "note": "(centres undefined)", "values": [{"measurement": "MIC99", "setting": "[1]", "result": 4.2, "unit": "nM"}, {"measurement": "fold change (FC)", "setting": "[2]", "result": 2}, {"measurement": "fractional inhibitory concentration index (FICI)", "setting": "[3]", "result": 1}]}, {"molecule": "COc1ccc(C(C#N)(CCCN2CCC(O)(c3ccccc3)CC2)C(C)C)cc1OC", "note": "(centres undefined)", "values": [{"measurement": "MIC99", "setting": "[1]", "result": 4.2, "unit": "nM"}, {"measurement": "fold change (FC)", "setting": "[2]", "result": 2}, {"measurement": "fractional inhibitory concentration index (FICI)", "setting": "[3]", "result": 1}]}, {"molecule": "COc1ccc(C(C#N)(CCCN2CCN(c3ccccc3)CC2)C(C)C)cc1OC", "note": "(centres undefined)", "values": [{"measurement": "MIC99", "setting": "[1]", "result": 4.2, "unit": "nM"}, {"measurement": "fold change (FC)", "setting": "[2]", "result": 2}, {"measurement": "fractional inhibitory concentration index (FICI)", "setting": "[3]", "result": 0.75}]}, {"molecule": "COc1ccc(C(C#N)(CCCN2CCN(c3ccccn3)CC2)C(C)C)cc1OC", "note": "(centres undefined)", "values": [{"measurement": "MIC99", "setting": "[1]", "result": 2.1, "unit": "nM"}, {"measurement": "fold change (FC)", "setting": "[2]", "result": 4}, {"measurement": "fractional inhibitory concentration index (FICI)", "setting": "[3]", "result": 0.75}]}, {"molecule": "COc1ccc(C(C#N)(CCCN2CCN(c3ccccc3F)CC2)C(C)C)cc1OC", "note": "(centres undefined)", "values": [{"measurement": "MIC99", "setting": "[1]", "result": 8.3, "unit": "nM"}, {"measurement": "fractional inhibitory concentration index (FICI)", "setting": "[3]", "result": 1.5}]}, {"molecule": "COc1ccc(CCN(C)CCCC(C#N)c2ccc(OC)c(OC)c2)cc1OC", "note": "(centres undefined)", "values": [{"measurement": "MIC99", "setting": "[1]", "result": 4.2, "unit": "nM"}, {"measurement": "fold change (FC)", "setting": "[2]", "result": 2}, {"measurement": "fractional inhibitory concentration index (FICI)", "setting": "[3]", "result": 1}]}, {"molecule": "COc1ccc(CCN(C)CCCC(C)(C#N)c2ccc(OC)c(OC)c2)cc1OC", "note": "(centres undefined)", "values": [{"measurement": "MIC99", "setting": "[1]", "result": 4.2, "unit": "nM"}, {"measurement": "fold change (FC)", "setting": "[2]", "result": 2}, {"measurement": "fractional inhibitory concentration index (FICI)", "setting": "[3]", "result": 1}]}, {"molecule": "CCC(C#N)(CCCN(C)CCc1ccc(OC)c(OC)c1)c1ccc(OC)c(OC)c1", "note": "(centres undefined)", "values": [{"measurement": "MIC99", "setting": "[1]", "result": 2.1, "unit": "nM"}, {"measurement": "fold change (FC)", "setting": "[2]", "result": 4}, {"measurement": "fractional inhibitory concentration index (FICI)", "setting": "[3]", "result": 0.75}]}, {"molecule": "CCCC(C#N)(CCCN(C)CCc1ccc(OC)c(OC)c1)c1ccc(OC)c(OC)c1", "note": "(centres undefined)", "values": [{"measurement": "MIC99", "setting": "[1]", "result": 2.1, "unit": "nM"}, {"measurement": "fold change (FC)", "setting": "[2]", "result": 4}, {"measurement": "fractional inhibitory concentration index (FICI)", "setting": "[3]", "result": 0.75}]}, {"molecule": "COc1ccc(CCN(C)CCCC(C#N)(c2ccc(OC)c(OC)c2)C2CCCC2)cc1OC", "note": "(centres undefined)", "values": [{"measurement": "MIC99", "setting": "[1]", "result": 4.2, "unit": "nM"}, {"measurement": "fold change (FC)", "setting": "[2]", "result": 2}, {"measurement": "fractional inhibitory concentration index (FICI)", "setting": "[3]", "result": 1}]}, {"molecule": "COc1ccc(CCN(C)CCCC(C#N)(c2ccc(OC)c(OC)c2)C2CCCCC2)cc1OC", "note": "(centres undefined)", "values": [{"measurement": "MIC99", "setting": "[1]", "result": 2.1, "unit": "nM"}, {"measurement": "fold change (FC)", "setting": "[2]", "result": 4}, {"measurement": "fractional inhibitory concentration index (FICI)", "setting": "[3]", "result": 1.25}]}, {"molecule": "COc1ccc(CCNCCCC(C#N)(c2ccc(OC)c(OC)c2)C(C)C)cc1OC", "note": "(centres undefined) [NORVERAPAMIL]", "values": [{"measurement": "MIC99", "setting": "[1]", "result": 4.2, "unit": "nM"}, {"measurement": "fold change (FC)", "setting": "[2]", "result": 2}, {"measurement": "fractional inhibitory concentration index (FICI)", "setting": "[3]", "result": 0.56}]}]}
